Data from patent EP2787958B1, “CHELIDONIUM MAJUS EXTRACTS AND THEIR USE IN THE TREATMENT OF SKIN DISORDERS AND PROMOTION OF SKIN REGENERATION” (priority 2011, dated 2013).
Read-outs that look alike come from different tables or passages of the source.

Tests used:
interleukin 1β (IL-1β) = assay: Inflammatory cytokines in cell supernatant (Mosaic ELISA microarray): IL-1β; format: cell-based, Human; conditions: for IL-1β ng/(ml* No. of cells from photo) ± SD: 24 hours; for IL-1β production (effect in words): 1-10 µM
interleukin 6 (IL-6) = assay: Inflammatory cytokines in cell supernatant (Mosaic ELISA microarray): IL-6; format: cell-based, Human; conditions: for IL-6 ng/(ml* No. of cells from photo) ± SD: 24 hours; for IL-6 production (effect in words): 1-10 µM
[1] = Anti-radical activity (decay of the DPPH radical); format: biochemical; conditions: for Anti-radical (skin protective): 24 hours
How it was run: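 Test substance in ethanol mixed 1:1 with 200 µM DPPH (stock concentrations), in quadruplicate. Absorbance read at 530 nm after 30 min, with vitamin C and ethanol-only controls. IC50 from variable-slope Hill regression of dose-activity curves.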

HDF cells [2] = assay: Summary of uses and toxic effects deduced from the cell assays (Table 1); format: cell-based, Human
How it was run: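 HDF cells exposed to test substances at a given dosage for 24 h; uses and toxicity inferred from free-radical scavenging, mitochondrial dehydrogenase activity, IL-1β/IL-6 production (basal or induced by 100 µM H2O2), proliferation under standard growth conditions, and senescence-like morphology.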

[3] = tested on: collagen produced by HDF cells; assay: Quantity of collagen produced by the cells (elution of Sirius Red)
[4] = tested on: Human dermal fibroblasts (HDF); assay: Mitochondrial dehydrogenase activity (WST-1 formazan assay) in HDF cells; conditions: for Revitalizing agent: 24 hours; for activity at 1 µM / activity at 7.3 µM: Homo sapiens, Fibroblast, read-out: % mitochondrial dehydrogenase activity ± SD
Method: Human dermal fibroblasts were used for assay at the 3rd T75 passage.
Mitochondrial dehydrogenase activity was measured in HDF, HEK and HUVEC cells by means of the formazan assay, using the WST-1 kit from Roche Diagnostic in accordance with the supplier's instructions. Briefly: the reagent was added (10 µl per well), the incubation was carried out for a further 2 hours or 4 hours, and, at the end of this time, the absorbance was read for 1 s at a wavelength of 450 nm in a Perkin Elmer Victor 2 Wallac microplate reader.
The activity percentage (% mitochondrial dehydrogenase activity) is defined as: % mitochondrial dehydrogenase activity = ((absorbance of treated cells - absorbance of blank) / (absorbance of control - absorbance of blank)) x 100.
The tests were performed with observations after 18 hours, seeding 8,000 cells per well, and after 42 hours, seeding 2,000 cells per well. Furthermore, in order to better analyze the dose/response curves for dihydroberberine, canadine and stylopine, curves were collected at 11 concentrations by seeding 2,000 cells per well with 46 hours incubation.
Dose/response curves are plotted at 6 concentrations. The tests were performed with observations after 24 hours, seeding 8,000 cells per well.

HDF cells [5] = assay: Evaluation of cell proliferation (counting of Sirius Red stained cells in photographs); conditions: 24 hours
[6] = Dose 1 µm (coptisine: 1 pm [sic])
[7] = Dose 1 µm (coptisine: 1 pm [sic]), 24 hours

SMILES: COc1ccc2c(c1OC)CN1CCc3cc4c(cc3C1=C2)OCO4 [dihydroberberine]
- IL-1β ng/(ml* No. of cells from photo) ± SD (interleukin 1β (IL-1β); 1 µM, 34 ng/ml TGF-β1): 99±10 ng/(ml* No. of cells from photo)
- IL-1β ng/(ml* No. of cells from photo) ± SD (interleukin 1β (IL-1β); 1 µM, 100 µM H2O2): 164±1 ng/(ml* No. of cells from photo)
- IL-1β ng/(ml* No. of cells from photo) ± SD (interleukin 1β (IL-1β); 1 µM, Standard conditions): 108±1 ng/(ml* No. of cells from photo)
- IL-1β ng/(ml* No. of cells from photo) ± SD (interleukin 1β (IL-1β); 7.3 µM, 34 ng/ml TGF-β1): 129±1 ng/(ml* No. of cells from photo)
- IL-1β ng/(ml* No. of cells from photo) ± SD (interleukin 1β (IL-1β); 7.3 µM, 100 µM H2O2): 212±18 ng/(ml* No. of cells from photo)
- IL-1β ng/(ml* No. of cells from photo) ± SD (interleukin 1β (IL-1β); 7.3 µM, Standard conditions): 125±2 ng/(ml* No. of cells from photo)
- IL-1β production (effect in words) (interleukin 1β (IL-1β); 34 ng/ml TGF-β1): antagonizes the stimulation of IL-1β induced by 34 ng/ml TGF-β1
- IL-1β production (effect in words) (interleukin 1β (IL-1β); 100 µM H2O2): tendency to increase IL-1β production in a dose-dependent manner
- IL-1β production (effect in words) (interleukin 1β (IL-1β); standard conditions): tendency to increase IL-1β production in a dose-dependent manner
- IL-6 ng/(ml* No. of cells from photo) ± SD (interleukin 6 (IL-6); 1 µM, 34 ng/ml TGF-β1): 512±25 ng/(ml* No. of cells from photo)
- IL-6 ng/(ml* No. of cells from photo) ± SD (interleukin 6 (IL-6); 1 µM, 100 µM H2O2): 1328±2 ng/(ml* No. of cells from photo)
- IL-6 ng/(ml* No. of cells from photo) ± SD (interleukin 6 (IL-6); 1 µM, Standard conditions): 541±24 ng/(ml* No. of cells from photo)
- IL-6 ng/(ml* No. of cells from photo) ± SD (interleukin 6 (IL-6); 7.3 µM, 34 ng/ml TGF-β1): 704±60 ng/(ml* No. of cells from photo)
- IL-6 ng/(ml* No. of cells from photo) ± SD (interleukin 6 (IL-6); 7.3 µM, 100 µM H2O2): 1685±444 ng/(ml* No. of cells from photo)
- IL-6 ng/(ml* No. of cells from photo) ± SD (interleukin 6 (IL-6); 7.3 µM, Standard conditions): 534±39 ng/(ml* No. of cells from photo)
- IL-6 production (effect in words) (interleukin 6 (IL-6); 34 ng/ml TGF-β1): tendency to antagonise the stimulation of IL-6 induced by TGF-β1
- IL-6 production (effect in words) (interleukin 6 (IL-6); 100 µM H2O2): significant effects in modulating IL-6 production
- IL-6 production (effect in words) (interleukin 6 (IL-6); standard conditions): significant effects in modulating IL-6 production
- anti-radical effects (in words) ([1]; 1 mM): shows anti-radical effects
- % DPPH activity ([1]; 1 mM, 30 minutes): 55%
- Anti-radical (skin protective) [1, 6]: Yes
- Anti-radical (skin protective) ([1]; Dose 7.3 µm): Yes
- IC50 ([1]; anti-radical activity, Hill equation): 62 µM
- Cytotoxic (HDF cells [2]): No
- Anti-fibrotic (prevention of scar formation, also from acne) (HDF cells [2]; [7]): Yes (↓collagen)
- Cytoprotective (antioxidant, anti-inflammatory and anti-ageing; useful also in the treatment of acne) (HDF cells [2]; [7]): No
- Wound-healing (HDF cells [2]; [7]): No
- Anti-fibrotic (prevention of scar formation, also from acne) (HDF cells [2]; Dose 7.3 µm, 24 hours): Yes (↓collagen)
- Cytoprotective (antioxidant, anti-inflammatory and anti-ageing; useful also in the treatment of acne) (HDF cells [2]; Dose 7.3 µm, 24 hours): No
- Cytotoxic (HDF cells [2]; Dose 7.3 µm, 24 hours): No
- Irritant (HDF cells [2]; Dose 7.3 µm, 24 hours): Yes (↑IL-6, ↑IL-1β)
- Wound-healing (HDF cells [2]; Dose 7.3 µm, 24 hours): No
- concentrations at which toxic (irritant) effects are shown (HDF cells [2]; exposure for 24 hours): greater than or equal to 1 µM
- Irritant (HDF cells [2]; human, 24 h, 1 µm): Yes (↑IL-6, ↑IL-1β)
- collagen production (effect in words) ([3]; 1-10 µM (1 µM and 10 µM), 34 ng/ml TGF-β1): antagonizes the stimulation of collagen induced by 34 ng/ml TGF-β1
- collagen production (effect in words) ([3]; 1-10 µM (1 µM and 10 µM), 100 µM H2O2): stimulates collagen production in a dose-dependent manner
- collagen production (effect in words) ([3]; 1-10 µM, standard conditions): stimulates collagen production in a dose-dependent manner
- concentrations below which no significant effects on mitochondrial dehydrogenase activity are shown [4]: below 0.1 µM
- mitochondrial dehydrogenase activity (effect in words) ([4]; 100 µM): reduced
- mitochondrial dehydrogenase activity (effect in words) ([4]; 1 and 10 µM, 18 h and 42 h, more marked at 42 h): increased with respect to the control
- Revitalizing agent [4, 6]: Yes
- Revitalizing agent ([4]; Dose 7.3 µm): Yes
- activity at 1 µM ([4]; 18 h): 131 ± 5.4%
- activity at 7.3 µM ([4]; 18 h): 128 ± 13.8%
- activity at 1 µM ([4]; 42 h): 143 ± 14.1%
- activity at 7.3 µM ([4]; 42 h): 137 ± 17.6%
- activity at 1 µM ([4]; 46 h): 121 ± 19.6%
- activity at 7.3 µM ([4]; 46 h): 192 ± 24.4%
- mitochondrial dehydrogenase activity (effect in words) ([4]; fibroblast cells, higher doses): inhibit mitochondrial dehydrogenase activity
- mitochondrial dehydrogenase activity (effect in words) ([4]; fibroblast cells, low dosage): stimulate mitochondrial dehydrogenase activity
- No. of cells from photo ± SD (HDF cells [5]; 1 µM, 34 ng/ml TGF-β1): 232±13
- No. of cells from photo ± SD (HDF cells [5]; 1 µM, 100 µM H2O2): 146±26
- No. of cells from photo ± SD (HDF cells [5]; 1 µM, Standard conditions): 160±18
- No. of cells from photo ± SD (HDF cells [5]; 7.3 µM, 34 ng/ml TGF-β1): 193±27
- No. of cells from photo ± SD (HDF cells [5]; 7.3 µM, 100 µM H2O2): 108±3
- No. of cells from photo ± SD (HDF cells [5]; 7.3 µM, Standard conditions): 129±13
